Data as given in US20100298141A1, “SUBSTITUTED PYRIDINE N-OXIDE HERBICIDES” (E. I. DU PONT DE NEMOURS AND COMPANY, priority 2007, published 2010).

Experiments:
tall waterhemp = test: Test G preemergence test; type: in vivo, Amaranthus tuberculatos; conditions: scale 0 to 100
sorghum = test: Test G preemergence test; type: in vivo, Sorghum vulgare; conditions: scale 0 to 100
corn = test: Test G preemergence test; type: in vivo, Zea mays; conditions: scale 0 to 100
spring wheat = test: Test D preemergence test; type: in vivo, Triticum aestivum; conditions: scale 0 to 100
Excerpt: (§1) Seeds of plant species selected from annual bluegrass (Poa annua), blackgrass (Alopecurus myosuroides), downy bromegrass (Bromus tectorum), field violet (Viola arvensis), green foxtail (Setaria viridis), Italian ryegrass (Lolium multiflorum), littleseed canarygrass (Phalaris minor), spring wheat (Triticum aestivum), wild oat (Avena fatua), […]), winter barley (Hordeum vulgare), and winter wheat (Triticum aestivum) were planted and treated preemergence with test chemicals formulated in a non-phytotoxic solvent mixture which included a surfactant. […] A dash (-) response means no test result.

winter wheat = test: Test D preemergence test; type: in vivo, Triticum aestivum; conditions: scale 0 to 100
Excerpt: as §1

millet foxtail = test: Test G preemergence test; type: in vivo, Setaria italica; conditions: scale 0 to 100
downy bromegrass = test: Test D preemergence test; type: in vivo, Bromus tectorum; conditions: scale 0 to 100
Excerpt: as §1

littleseed canarygrass = test: Test D preemergence test; type: in vivo, Phalaris minor; conditions: scale 0 to 100
Excerpt: as §1

itchgrass = test: Test G preemergence test; type: in vivo, Rottboellia cochinchinensis; conditions: scale 0 to 100
duck salad = test: Test B flooded paddy test; type: in vivo, Heteranthera limosa; conditions: Flood, 250 g ai/ha, 13 to 15 days; scale 0 to 100, 0 no effect, 100 complete control
Excerpt: (§2) At time of treatment, test pots were flooded to 3 cm above the soil surface, treated by application of test compounds directly to the paddy water, and then maintained at that water depth for the duration of the test. Treated plants and controls were maintained in a greenhouse for 13 to 15 days, after which time all species were compared to controls and visually evaluated. […] A dash (-) response means no test result.

barnyardgrass = test: Test G preemergence test; type: in vivo, Echinochloa crus-galli; conditions: scale 0 to 100
broadleaf signalgrass = test: Test G preemergence test; type: in vivo, Brachiaria platyphylla; conditions: scale 0 to 100
Italian ryegrass = test: Test D preemergence test; type: in vivo, Lolium multiflorum; conditions: scale 0 to 100
Excerpt: as §1

wild oat = test: Test D preemergence test; type: in vivo, Avena fatua; conditions: scale 0 to 100
Excerpt: as §1

cotton = test: Test G preemergence test; type: in vivo, Gossypium hirsutum; conditions: scale 0 to 100
millet = test: Test G preemergence test; type: in vivo, Panicum miliaceum; conditions: scale 0 to 100
field violet = test: Test D preemergence test; type: in vivo, Viola arvensis; conditions: scale 0 to 100
Excerpt: as §1

woolly cupgrass = test: Test G preemergence test; type: in vivo, Eriochloa villosa; conditions: scale 0 to 100
blackgrass = test: Test D preemergence test; type: in vivo, Alopecurus myosuroides; conditions: scale 0 to 100
Excerpt: as §1

annual bluegrass = test: Test D preemergence test; type: in vivo, Poa annua; conditions: scale 0 to 100
Excerpt: as §1

goosegrass = test: Test G preemergence test; type: in vivo, Eleusine indica; conditions: scale 0 to 100
eastern black nightshade = test: Test G preemergence test; type: in vivo, Solanum ptycanthum; conditions: scale 0 to 100
yellow foxtail = test: Test G preemergence test; type: in vivo, Pennisetum glaucum; conditions: scale 0 to 100
umbrella sedge = test: Test B flooded paddy test; type: in vivo, Cyperus difformis; conditions: Flood, 250 g ai/ha, 13 to 15 days; scale 0 to 100, 0 no effect, 100 complete control
Excerpt: as §2

green foxtail = test: Test D preemergence test; type: in vivo, Setaria viridis; conditions: scale 0 to 100
Excerpt: as §1

Cc1cc[n+]([O-])c([S+]([O-])Cc2c(C(F)(F)F)nn(C)c2OC(F)F)c1 (stereo not drawn) [Compound 1] was tested, and the “Plant response rating, Waterhemp” value (tall waterhemp; 31 g ai/ha) was 40, the “Plant response rating, Waterhemp” value (tall waterhemp; 62 g ai/ha) was 100 and the “Plant response rating, Waterhemp” value (tall waterhemp; 125 g ai/ha) was 100. The “Plant response rating, Waterhemp” value (tall waterhemp; 250 g ai/ha) was 100, the “Plant response rating, Sorghum” value (sorghum; 31 g ai/ha) was 0 and the “Plant response rating, Sorghum” value (sorghum; 62 g ai/ha) was 0. For the same compound, the “Plant response rating, Sorghum” value (sorghum; 125 g ai/ha) was 40, the “Plant response rating, Sorghum” value (sorghum; 250 g ai/ha) was 50 and the “Plant response rating, Corn” value (corn; 31 g ai/ha) was 0. For the same compound, the “Plant response rating, Corn” value (corn; 62 g ai/ha) was 5, the “Plant response rating, Corn” value (corn; 125 g ai/ha) was 10 and the “Plant response rating, Corn” value (corn; 250 g ai/ha) was 45. For the same compound, the “Plant response rating, Wheat, Spring” value (spring wheat; 31 g ai/ha) was 0, the “Plant response rating, Wheat, Spring” value (spring wheat; 62 g ai/ha) was 0 and the “Plant response rating, Wheat, Spring” value (spring wheat; 125 g ai/ha) was 30. The “Plant response rating, Wheat, Spring” value (spring wheat; 250 g ai/ha) was 45, the “Plant response rating, Wheat, Winter” value (winter wheat; 31 g ai/ha) was 0 and the “Plant response rating, Wheat, Winter” value (winter wheat; 62 g ai/ha) was 5. For the same compound, the “Plant response rating, Wheat, Winter” value (winter wheat; 125 g ai/ha) was 50, the “Plant response rating, Wheat, Winter” value (winter wheat; 250 g ai/ha) was 60 and the “Plant response rating, Foxtail, Millet” value (millet foxtail; 31 g ai/ha) was 0. The “Plant response rating, Foxtail, Millet” value (millet foxtail; 62 g ai/ha) was 100, the “Plant response rating, Foxtail, Millet” value (millet foxtail; 125 g ai/ha) was 100 and the “Plant response rating, Foxtail, Millet” value (millet foxtail; 250 g ai/ha) was 100. The “Plant response rating, Bromegrass, Downy” value (downy bromegrass; 31 g ai/ha) was 0, the “Plant response rating, Bromegrass, Downy” value (downy bromegrass; 62 g ai/ha) was 30 and the “Plant response rating, Bromegrass, Downy” value (downy bromegrass; 125 g ai/ha) was 40. The “Plant response rating, Bromegrass, Downy” value (downy bromegrass; 250 g ai/ha) was 40, the “Plant response rating, Canarygrass” value (littleseed canarygrass; 31 g ai/ha) was 0 and the “Plant response rating, Canarygrass” value (littleseed canarygrass; 62 g ai/ha) was 100. For the same compound, the “Plant response rating, Canarygrass” value (littleseed canarygrass; 125 g ai/ha) was 80, the “Plant response rating, Canarygrass” value (littleseed canarygrass; 250 g ai/ha) was 100 and the “Plant response rating, Itchgrass” value (itchgrass; 31 g ai/ha) was 20. For the same compound, the “Plant response rating, Itchgrass” value (itchgrass; 62 g ai/ha) was 35, the “Plant response rating, Itchgrass” value (itchgrass; 125 g ai/ha) was 40 and the “Plant response rating, Itchgrass” value (itchgrass; 250 g ai/ha) was 60. For the same compound, the “Plant response rating, Ducksalad” value (duck salad) was 90, the “Plant response rating, Barnyardgrass” value (barnyardgrass; 31 g ai/ha) was 20 and the “Plant response rating, Barnyardgrass” value (barnyardgrass; 62 g ai/ha) was 65. The “Plant response rating, Barnyardgrass” value (barnyardgrass; 125 g ai/ha) was 100, the “Plant response rating, Barnyardgrass” value (barnyardgrass; 250 g ai/ha) was 100 and the “Plant response rating, Signalgrass” value (broadleaf signalgrass; 31 g ai/ha) was 20. The “Plant response rating, Signalgrass” value (broadleaf signalgrass; 62 g ai/ha) was 70, the “Plant response rating, Signalgrass” value (broadleaf signalgrass; 125 g ai/ha) was 70 and the “Plant response rating, Signalgrass” value (broadleaf signalgrass; 250 g ai/ha) was 100. The “Plant response rating, Ryegrass, Italian” value (Italian ryegrass; 31 g ai/ha) was 0, the “Plant response rating, Ryegrass, Italian” value (Italian ryegrass; 62 g ai/ha) was 20 and the “Plant response rating, Ryegrass, Italian” value (Italian ryegrass; 125 g ai/ha) was 30. For the same compound, the “Plant response rating, Ryegrass, Italian” value (Italian ryegrass; 250 g ai/ha) was 95, the “Plant response rating, Oat, Wild” value (wild oat; 31 g ai/ha) was 0 and the “Plant response rating, Oat, Wild” value (wild oat; 62 g ai/ha) was 0. For the same compound, the “Plant response rating, Oat, Wild” value (wild oat; 125 g ai/ha) was 20, the “Plant response rating, Oat, Wild” value (wild oat; 250 g ai/ha) was 40 and the “Plant response rating, Cotton” value (cotton; 31 g ai/ha) was 0. For the same compound, the “Plant response rating, Cotton” value (cotton; 62 g ai/ha) was 10, the “Plant response rating, Cotton” value (cotton; 125 g ai/ha) was 15 and the “Plant response rating, Cotton” value (cotton; 250 g ai/ha) was 20. For the same compound, the “Plant response rating, Millet” value (millet; 31 g ai/ha) was 0, the “Plant response rating, Millet” value (millet; 62 g ai/ha) was 25 and the “Plant response rating, Millet” value (millet; 125 g ai/ha) was 20. For the same compound, the “Plant response rating, Millet” value (millet; 250 g ai/ha) was 100, the “Plant response rating, Field Violet” value (field violet; 31 g ai/ha) was 20 and the “Plant response rating, Field Violet” value (field violet; 62 g ai/ha) was 20. The “Plant response rating, Field Violet” value (field violet; 125 g ai/ha) was 20, the “Plant response rating, Field Violet” value (field violet; 250 g ai/ha) was 75 and the “Plant response rating, Cupgrass, Woolly” value (woolly cupgrass; 31 g ai/ha) was 30. For the same compound, the “Plant response rating, Cupgrass, Woolly” value (woolly cupgrass; 62 g ai/ha) was 70, the “Plant response rating, Cupgrass, Woolly” value (woolly cupgrass; 125 g ai/ha) was 50 and the “Plant response rating, Cupgrass, Woolly” value (woolly cupgrass; 250 g ai/ha) was 100. For the same compound, the “Plant response rating, Blackgrass” value (blackgrass; 31 g ai/ha) was 5, the “Plant response rating, Blackgrass” value (blackgrass; 62 g ai/ha) was 60 and the “Plant response rating, Blackgrass” value (blackgrass; 125 g ai/ha) was 70. The “Plant response rating, Blackgrass” value (blackgrass; 250 g ai/ha) was 100, the “Plant response rating, Bluegrass” value (annual bluegrass; 31 g ai/ha) was 0 and the “Plant response rating, Bluegrass” value (annual bluegrass; 62 g ai/ha) was 75. For the same compound, the “Plant response rating, Bluegrass” value (annual bluegrass; 125 g ai/ha) was 90, the “Plant response rating, Bluegrass” value (annual bluegrass; 250 g ai/ha) was 100 and the “Plant response rating, Goosegrass” value (goosegrass; 31 g ai/ha) was 70. For the same compound, the “Plant response rating, Goosegrass” value (goosegrass; 62 g ai/ha) was 90, the “Plant response rating, Goosegrass” value (goosegrass; 125 g ai/ha) was 100 and the “Plant response rating, Goosegrass” value (goosegrass; 250 g ai/ha) was 100. For the same compound, the “Plant response rating, Nightshade” value (eastern black nightshade; 31 g ai/ha) was 0, the “Plant response rating, Nightshade” value (eastern black nightshade; 62 g ai/ha) was 30 and the “Plant response rating, Nightshade” value (eastern black nightshade; 125 g ai/ha) was 100. The “Plant response rating, Nightshade” value (eastern black nightshade; 250 g ai/ha) was 100, the “Plant response rating, Foxtail, Yellow” value (yellow foxtail; 31 g ai/ha) was 20 and the “Plant response rating, Foxtail, Yellow” value (yellow foxtail; 62 g ai/ha) was 100. For the same compound, the “Plant response rating, Foxtail, Yellow” value (yellow foxtail; 125 g ai/ha) was 100, the “Plant response rating, Foxtail, Yellow” value (yellow foxtail; 250 g ai/ha) was 100 and the “Plant response rating, Umbrella Sedge” value (umbrella sedge) was 100. The “Plant response rating, Foxtail, Green” value (green foxtail; 31 g ai/ha) was 0, the “Plant response rating, Foxtail, Green” value (green foxtail; 62 g ai/ha) was 95 and the “Plant response rating, Foxtail, Green” value (green foxtail; 125 g ai/ha) was 100. For the same compound, the “Plant response rating, Foxtail, Green” value (green foxtail; 250 g ai/ha) was 100.

For CC(c1c(C(F)(F)F)nn(C)c1OC(F)F)S(=O)(=O)c1cccc[n+]1[O-] (stereo not drawn) [Compound 5], the “Plant response rating, Ducksalad” value (duck salad) was 90 and the “Plant response rating, Umbrella Sedge” value (umbrella sedge) was 100.
